Measured values: PMC8213057, “Targeting ALK2: An Open Science Approach to Developing Therapeutics for the Treatment of Diffuse Intrinsic Pontine Glioma” (Journal of Medicinal Chemistry, 2020)

Key:
[1] = target: CAMK2g (Homo sapiens, UniProt Q13555); conditions: 1 μM; Run 1, Run 2
[2] = target: CDK1/cyclin A (Homo sapiens, UniProt P06493); conditions: 1 μM; Run 1, Run 2
[3] = target: DAPK2 (Homo sapiens, UniProt Q9UIK4); conditions: 1 μM; Run 1, Run 2
[4] = target: T1, DCAMKL1 (Homo sapiens, UniProt O15075); conditions: 1 μM; Run 1, Run 2
T1 sequence (O15075 1-740): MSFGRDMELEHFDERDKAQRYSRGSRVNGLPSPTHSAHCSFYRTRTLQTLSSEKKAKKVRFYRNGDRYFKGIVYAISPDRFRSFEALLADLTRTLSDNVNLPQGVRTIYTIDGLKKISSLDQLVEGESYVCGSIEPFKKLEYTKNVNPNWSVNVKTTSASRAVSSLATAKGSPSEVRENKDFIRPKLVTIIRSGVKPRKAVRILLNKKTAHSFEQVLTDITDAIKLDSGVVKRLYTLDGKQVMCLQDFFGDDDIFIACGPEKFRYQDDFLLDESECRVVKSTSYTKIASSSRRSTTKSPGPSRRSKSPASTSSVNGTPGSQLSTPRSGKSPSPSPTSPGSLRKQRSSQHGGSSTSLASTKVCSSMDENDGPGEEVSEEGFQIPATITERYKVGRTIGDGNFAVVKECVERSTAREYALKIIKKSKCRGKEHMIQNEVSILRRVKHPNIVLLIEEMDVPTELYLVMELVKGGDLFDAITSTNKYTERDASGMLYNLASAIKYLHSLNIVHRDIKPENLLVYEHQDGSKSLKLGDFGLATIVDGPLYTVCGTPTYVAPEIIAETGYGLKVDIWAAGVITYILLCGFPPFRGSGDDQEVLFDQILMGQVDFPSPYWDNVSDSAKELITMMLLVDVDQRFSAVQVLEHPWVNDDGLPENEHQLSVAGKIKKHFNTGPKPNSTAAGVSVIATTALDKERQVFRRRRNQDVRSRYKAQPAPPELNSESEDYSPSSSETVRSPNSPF

[5] = target: ERK1 (Homo sapiens, UniProt P27361); conditions: 1 μM; Run 1, Run 2
[6] = target: LCK (Homo sapiens, UniProt P06239); conditions: 1 μM; Run 1, Run 2
Sequence of LCK (P06239 whole entry): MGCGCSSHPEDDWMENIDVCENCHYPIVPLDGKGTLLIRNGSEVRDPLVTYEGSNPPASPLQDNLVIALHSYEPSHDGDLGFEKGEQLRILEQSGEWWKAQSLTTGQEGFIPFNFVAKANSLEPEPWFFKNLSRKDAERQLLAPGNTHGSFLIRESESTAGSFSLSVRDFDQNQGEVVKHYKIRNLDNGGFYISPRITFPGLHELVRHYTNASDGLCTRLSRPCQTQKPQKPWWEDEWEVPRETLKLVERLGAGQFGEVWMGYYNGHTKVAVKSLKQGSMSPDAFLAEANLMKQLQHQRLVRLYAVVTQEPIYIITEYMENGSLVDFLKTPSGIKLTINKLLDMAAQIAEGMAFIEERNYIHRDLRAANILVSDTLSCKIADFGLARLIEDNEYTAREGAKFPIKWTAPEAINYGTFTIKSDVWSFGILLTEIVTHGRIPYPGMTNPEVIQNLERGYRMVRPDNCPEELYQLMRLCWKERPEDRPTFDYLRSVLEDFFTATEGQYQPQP

[7] = target: MLK1/MAP3K9 (Homo sapiens, UniProt P80192); conditions: 1 μM; Run 1, Run 2
[8] = target: p70S6Kb/RPS6KB2 (Homo sapiens, UniProt Q9UBS0); conditions: 1 μM; Run 1, Run 2
Sequence of p70S6Kb/RPS6KB2 (Q9UBS0 whole entry): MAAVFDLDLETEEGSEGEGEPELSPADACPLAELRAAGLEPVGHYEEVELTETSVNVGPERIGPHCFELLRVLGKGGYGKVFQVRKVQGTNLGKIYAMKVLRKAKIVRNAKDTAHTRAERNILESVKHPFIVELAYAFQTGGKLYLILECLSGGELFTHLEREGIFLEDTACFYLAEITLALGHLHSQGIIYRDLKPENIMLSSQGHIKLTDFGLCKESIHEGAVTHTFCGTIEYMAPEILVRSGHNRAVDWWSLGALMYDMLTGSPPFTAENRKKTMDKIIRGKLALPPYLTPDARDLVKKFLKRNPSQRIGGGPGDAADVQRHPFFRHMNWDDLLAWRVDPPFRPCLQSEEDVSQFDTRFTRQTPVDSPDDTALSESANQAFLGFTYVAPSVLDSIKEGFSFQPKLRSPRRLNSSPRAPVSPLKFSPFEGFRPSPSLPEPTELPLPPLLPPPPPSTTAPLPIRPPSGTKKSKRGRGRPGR

[9] = target: RSK3 (Homo sapiens, UniProt Q15349); conditions: 1 μM; Run 1, Run 2
[10] = target: CSK (Homo sapiens, UniProt P41240); assay: biochemical; conditions: read-out: % enzyme activity, 1 μM; Run 1, Run 2
Sequence of CSK (P41240 whole entry): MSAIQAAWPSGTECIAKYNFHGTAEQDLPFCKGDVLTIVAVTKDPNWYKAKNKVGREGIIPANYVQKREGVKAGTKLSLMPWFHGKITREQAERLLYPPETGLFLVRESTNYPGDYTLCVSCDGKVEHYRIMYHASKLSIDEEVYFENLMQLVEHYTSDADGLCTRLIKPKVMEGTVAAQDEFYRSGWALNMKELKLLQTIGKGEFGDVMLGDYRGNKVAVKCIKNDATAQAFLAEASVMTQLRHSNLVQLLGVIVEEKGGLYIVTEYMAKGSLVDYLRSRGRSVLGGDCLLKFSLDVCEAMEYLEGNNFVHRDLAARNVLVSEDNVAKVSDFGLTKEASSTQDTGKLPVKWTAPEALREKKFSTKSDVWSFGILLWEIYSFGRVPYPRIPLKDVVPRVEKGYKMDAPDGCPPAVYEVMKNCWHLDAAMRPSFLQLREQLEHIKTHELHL

[11] = target: T1, DCAMKL1; assay: biochemical; conditions: read-out: % enzyme activity, 1 μM; Run 1, Run 2
[12] = target: FRK/PTK5 (Homo sapiens, UniProt P42685); assay: biochemical; conditions: read-out: % enzyme activity, 1 μM; Run 1, Run 2
Sequence of FRK/PTK5 (P42685 whole entry): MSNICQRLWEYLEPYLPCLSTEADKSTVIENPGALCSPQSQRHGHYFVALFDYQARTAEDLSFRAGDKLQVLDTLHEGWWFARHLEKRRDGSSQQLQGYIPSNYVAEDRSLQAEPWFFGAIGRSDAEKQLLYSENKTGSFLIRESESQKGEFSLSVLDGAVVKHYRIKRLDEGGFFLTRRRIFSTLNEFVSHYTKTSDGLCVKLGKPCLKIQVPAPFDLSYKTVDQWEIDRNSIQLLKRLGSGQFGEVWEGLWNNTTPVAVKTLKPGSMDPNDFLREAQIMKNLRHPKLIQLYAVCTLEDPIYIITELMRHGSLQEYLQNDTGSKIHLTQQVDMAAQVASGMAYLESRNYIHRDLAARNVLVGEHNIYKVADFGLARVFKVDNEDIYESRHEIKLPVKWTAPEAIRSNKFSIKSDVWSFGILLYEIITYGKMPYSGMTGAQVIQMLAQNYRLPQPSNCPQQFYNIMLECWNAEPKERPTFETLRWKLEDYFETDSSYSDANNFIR

[13] = target: GSK3b (Homo sapiens, UniProt P49841); assay: biochemical; conditions: read-out: % enzyme activity, 1 μM; Run 1, Run 2
[14] = target: MAST3 (Homo sapiens, UniProt O60307); assay: biochemical; conditions: read-out: % enzyme activity, 1 μM; Run 1, Run 2
[15] = target: MEK2 (Homo sapiens, UniProt P36507); assay: biochemical; conditions: read-out: % enzyme activity, 1 μM; Run 1, Run 2
[16] = target: MST3/STK24 (Homo sapiens, UniProt Q9Y6E0); assay: biochemical; conditions: read-out: % enzyme activity, 1 μM; Run 1, Run 2
[17] = target: PDGFRa (Homo sapiens, UniProt P16234); assay: biochemical; conditions: read-out: % enzyme activity, 1 μM; Run 1, Run 2
Sequence of PDGFRa (P16234 24-1089): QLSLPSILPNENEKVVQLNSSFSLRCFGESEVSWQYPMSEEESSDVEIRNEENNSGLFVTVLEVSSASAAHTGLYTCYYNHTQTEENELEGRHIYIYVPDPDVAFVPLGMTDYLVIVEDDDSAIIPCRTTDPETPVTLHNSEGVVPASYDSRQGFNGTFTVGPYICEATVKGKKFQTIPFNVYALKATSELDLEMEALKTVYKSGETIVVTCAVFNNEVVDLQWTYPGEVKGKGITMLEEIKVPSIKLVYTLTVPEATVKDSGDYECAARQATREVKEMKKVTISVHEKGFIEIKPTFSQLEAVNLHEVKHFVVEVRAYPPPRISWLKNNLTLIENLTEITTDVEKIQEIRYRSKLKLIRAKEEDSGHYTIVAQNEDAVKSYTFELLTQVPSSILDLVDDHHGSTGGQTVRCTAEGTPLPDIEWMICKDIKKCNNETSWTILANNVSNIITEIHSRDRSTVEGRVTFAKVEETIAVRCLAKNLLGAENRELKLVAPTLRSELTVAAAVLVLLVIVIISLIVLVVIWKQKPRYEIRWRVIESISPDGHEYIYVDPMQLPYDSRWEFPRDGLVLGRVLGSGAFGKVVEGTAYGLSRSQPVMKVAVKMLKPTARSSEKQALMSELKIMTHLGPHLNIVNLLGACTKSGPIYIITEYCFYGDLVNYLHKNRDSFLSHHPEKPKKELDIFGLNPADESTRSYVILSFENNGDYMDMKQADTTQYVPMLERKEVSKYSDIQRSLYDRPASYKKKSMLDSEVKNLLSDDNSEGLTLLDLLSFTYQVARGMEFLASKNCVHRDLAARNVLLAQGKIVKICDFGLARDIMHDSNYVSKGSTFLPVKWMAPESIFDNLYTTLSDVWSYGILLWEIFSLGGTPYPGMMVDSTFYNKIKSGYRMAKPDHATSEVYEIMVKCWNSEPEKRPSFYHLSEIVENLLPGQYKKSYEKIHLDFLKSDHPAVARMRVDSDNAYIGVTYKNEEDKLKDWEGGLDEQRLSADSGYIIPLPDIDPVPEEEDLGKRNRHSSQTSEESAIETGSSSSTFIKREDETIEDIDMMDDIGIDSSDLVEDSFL

[18] = target: T2, PLK4/SAK (Homo sapiens, UniProt O00444); assay: biochemical; conditions: read-out: % enzyme activity, 1 μM; Run 1, Run 2
T2 sequence (O00444 1-970): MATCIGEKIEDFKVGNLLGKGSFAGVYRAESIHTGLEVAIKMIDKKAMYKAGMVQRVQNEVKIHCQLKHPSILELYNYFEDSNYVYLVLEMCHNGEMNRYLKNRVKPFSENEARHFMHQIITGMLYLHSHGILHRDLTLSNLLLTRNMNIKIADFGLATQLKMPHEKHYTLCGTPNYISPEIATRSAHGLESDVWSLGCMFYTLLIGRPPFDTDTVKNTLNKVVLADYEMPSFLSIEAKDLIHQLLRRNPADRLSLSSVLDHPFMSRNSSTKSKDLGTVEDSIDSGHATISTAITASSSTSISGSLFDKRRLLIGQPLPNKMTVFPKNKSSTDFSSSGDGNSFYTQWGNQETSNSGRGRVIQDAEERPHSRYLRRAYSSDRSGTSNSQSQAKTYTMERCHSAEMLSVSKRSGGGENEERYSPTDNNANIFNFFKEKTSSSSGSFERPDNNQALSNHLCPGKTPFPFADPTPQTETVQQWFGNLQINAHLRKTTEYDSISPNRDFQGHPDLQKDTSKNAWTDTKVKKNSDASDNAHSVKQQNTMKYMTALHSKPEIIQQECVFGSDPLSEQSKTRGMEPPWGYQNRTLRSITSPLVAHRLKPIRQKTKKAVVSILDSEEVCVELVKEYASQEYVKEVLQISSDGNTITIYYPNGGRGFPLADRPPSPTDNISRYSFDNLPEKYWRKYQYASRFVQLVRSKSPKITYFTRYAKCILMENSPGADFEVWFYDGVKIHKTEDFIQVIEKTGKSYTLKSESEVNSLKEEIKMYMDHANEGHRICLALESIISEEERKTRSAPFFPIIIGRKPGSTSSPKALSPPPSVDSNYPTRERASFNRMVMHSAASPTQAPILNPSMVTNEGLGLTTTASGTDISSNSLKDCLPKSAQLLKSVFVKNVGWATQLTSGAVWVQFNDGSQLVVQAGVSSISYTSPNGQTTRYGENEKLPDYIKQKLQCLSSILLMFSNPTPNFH

[19] = target: RIPK3 (Homo sapiens, UniProt Q9Y572); assay: biochemical; conditions: read-out: % enzyme activity, 1 μM; Run 1, Run 2
[20] = target: STK25/YSK1 (Homo sapiens, UniProt O00506); assay: biochemical; conditions: read-out: % enzyme activity, 1 μM; Run 1, Run 2
[21] = target: TYK2 (Homo sapiens, UniProt P29597); assay: biochemical; conditions: read-out: % enzyme activity, 1 μM; Run 1, Run 2
Sequence of TYK2 (P29597 whole entry, species assumed): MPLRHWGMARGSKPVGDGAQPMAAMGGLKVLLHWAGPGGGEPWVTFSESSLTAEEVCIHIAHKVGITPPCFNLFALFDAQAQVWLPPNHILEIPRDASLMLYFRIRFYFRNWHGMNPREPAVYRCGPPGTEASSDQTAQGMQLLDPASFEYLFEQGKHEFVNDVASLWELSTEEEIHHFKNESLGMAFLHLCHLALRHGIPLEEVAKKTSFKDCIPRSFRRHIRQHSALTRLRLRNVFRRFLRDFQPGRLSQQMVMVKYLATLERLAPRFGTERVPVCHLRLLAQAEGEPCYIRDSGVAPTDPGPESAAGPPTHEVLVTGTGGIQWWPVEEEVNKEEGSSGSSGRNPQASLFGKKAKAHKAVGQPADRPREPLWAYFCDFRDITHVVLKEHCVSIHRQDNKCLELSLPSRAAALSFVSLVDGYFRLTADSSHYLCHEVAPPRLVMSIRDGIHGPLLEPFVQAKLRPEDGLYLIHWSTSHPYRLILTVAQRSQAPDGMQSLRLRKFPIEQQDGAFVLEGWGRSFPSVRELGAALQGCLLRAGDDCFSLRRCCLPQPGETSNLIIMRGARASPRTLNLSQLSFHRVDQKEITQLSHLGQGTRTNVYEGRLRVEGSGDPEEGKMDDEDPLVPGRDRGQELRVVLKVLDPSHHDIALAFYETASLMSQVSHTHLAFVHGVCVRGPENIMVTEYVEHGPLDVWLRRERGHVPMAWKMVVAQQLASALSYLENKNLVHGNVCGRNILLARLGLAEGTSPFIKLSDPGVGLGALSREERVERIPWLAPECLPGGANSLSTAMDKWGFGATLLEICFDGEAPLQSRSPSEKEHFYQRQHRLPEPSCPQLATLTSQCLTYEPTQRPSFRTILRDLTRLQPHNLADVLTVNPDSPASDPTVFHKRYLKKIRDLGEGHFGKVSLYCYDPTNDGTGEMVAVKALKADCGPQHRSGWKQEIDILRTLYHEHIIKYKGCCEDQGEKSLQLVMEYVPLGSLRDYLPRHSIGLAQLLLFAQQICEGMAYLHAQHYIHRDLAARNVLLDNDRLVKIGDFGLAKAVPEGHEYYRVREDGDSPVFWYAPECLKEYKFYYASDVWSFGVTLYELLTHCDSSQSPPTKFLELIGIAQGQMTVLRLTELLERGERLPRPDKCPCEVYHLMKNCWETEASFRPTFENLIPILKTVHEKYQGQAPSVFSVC

Sequence of CAMK2g (Q13555 whole entry): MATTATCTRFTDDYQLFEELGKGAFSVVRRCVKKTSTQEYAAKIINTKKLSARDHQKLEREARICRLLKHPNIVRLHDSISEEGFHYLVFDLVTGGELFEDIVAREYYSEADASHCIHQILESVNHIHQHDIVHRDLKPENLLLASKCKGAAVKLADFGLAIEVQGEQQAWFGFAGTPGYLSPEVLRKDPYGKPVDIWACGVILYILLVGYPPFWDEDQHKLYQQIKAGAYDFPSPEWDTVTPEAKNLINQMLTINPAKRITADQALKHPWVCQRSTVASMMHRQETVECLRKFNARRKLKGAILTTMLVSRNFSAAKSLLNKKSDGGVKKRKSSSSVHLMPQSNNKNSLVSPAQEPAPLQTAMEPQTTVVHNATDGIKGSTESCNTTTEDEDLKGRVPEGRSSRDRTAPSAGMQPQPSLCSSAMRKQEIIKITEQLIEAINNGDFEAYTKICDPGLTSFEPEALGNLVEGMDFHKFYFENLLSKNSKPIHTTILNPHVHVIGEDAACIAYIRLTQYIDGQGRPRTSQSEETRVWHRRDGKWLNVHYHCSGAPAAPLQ

| Structure (SMILES) | % enzyme activity [1] | % enzyme activity [2] | % enzyme activity [3] | % enzyme activity [4] | % enzyme activity [5] | % enzyme activity [6] | % enzyme activity [7] | % enzyme activity [8] | % enzyme activity [9] | remaining activity at 1 µM [10] | remaining activity at 1 µM [11] | remaining activity at 1 µM [12] | remaining activity at 1 µM [13] | remaining activity at 1 µM [14] | remaining activity at 1 µM [15] | remaining activity at 1 µM [16] | remaining activity at 1 µM [17] | remaining activity at 1 µM [18] | remaining activity at 1 µM [19] | remaining activity at 1 µM [20] | also measured |
| --- | --- | --- | --- | --- | --- | --- | --- | --- | --- | --- | --- | --- | --- | --- | --- | --- | --- | --- | --- | --- | --- |
| COc1cc(-c2cncc(-c3ccc(N4CCN(C)CC4)cc3)c2C)cc(F)c1C(N)=O [Compound 26a, 2-Fluoro-6-methoxy-4-(4-methyl-5-(4-(4-methylpiperazin-1-yl)phenyl)pyridin-3-yl)benzamide] | 100.65% | 92.50% | 101.48% | 81.46% | 94.73% | 92.53% | 110.44% | 97.21% | 87.93% | 99.5% | 81.8% | 101% | 88.5% | 94.7% | 87.1% | 90.2% | 82.9% | 94.1% | 106% | 95.7% | remaining activity at 1 µM [21]: 92.6% |
| COc1cc(-c2cncc(-c3ccc(N4C[C@@H](C)N(C)[C@@H](C)C4)cc3)c2C)cc(F)c1C(N)=O [Compound 26c, 2-Fluoro-6-methoxy-4-(4-methyl-5-(4-((3R,5S)-3,4,5-trimethylpiperazin-1-yl)phenyl)pyridin-3-yl)benzamide] | 107.66% | 89.52% | 95.98% | 85.85% | 94.56% | 98.93% | 98.95% | 99.09% | 99.74% | 104% | 89.1% | 98.2% | 88.8% | 95.5% | 94% | 96.3% | 81.9% | 98.8% | 104% | 96.1% | remaining activity at 1 µM [21]: 103% |
